≈ marks a conversion by molar mass, not a printed value. Calls of active or inactive are those of the source. The calls are words filed in the database; no cut-off is given here.
What was measured:
[1] = Antitumor activity against human AZ-521 cells xenografted in mouse at 5 mg/kg, po administered once daily for 12 days relative to control; assay type: functional
Histone deacetylase 2 = Histone deacetylase 2 (Homo sapiens, UniProt Q92769)
[2] = Solubility at pH 1.2; assay type: physicochemical; settings: buffer
[3] = Metabolic stability in mouse microsomes assessed as biotransformation rate; assay type: ADME, Microsome
HCT-116 [4] = experiment: cells; settings: Homo sapiens
Description: Antiproliferative activity against human HCT116 cells by MTT assay

Mus musculus [5] = experiment: Toxicity in mouse xenografted with human HCT15 cells at 5 to 20 mg/kg, po administered once daily for 12 days; assay type: organism-based, HCT-15; design: dose 5-20 mg/kg, route oral; settings: in vivo, 288 h
Mus musculus [6] = experiment: Toxicity in mouse xenografted with human TSU-Pr1 cells at 5 to 20 mg/kg, po administered once daily for 12 days; assay type: organism-based; design: dose 5-20 mg/kg, route oral; settings: in vivo, 288 h
Histone deacetylase 3 = Histone deacetylase 3 (Homo sapiens, UniProt O15379); experiment: Inhibition of HDAC3
Sequence of Histone deacetylase 3 (O15379 whole entry): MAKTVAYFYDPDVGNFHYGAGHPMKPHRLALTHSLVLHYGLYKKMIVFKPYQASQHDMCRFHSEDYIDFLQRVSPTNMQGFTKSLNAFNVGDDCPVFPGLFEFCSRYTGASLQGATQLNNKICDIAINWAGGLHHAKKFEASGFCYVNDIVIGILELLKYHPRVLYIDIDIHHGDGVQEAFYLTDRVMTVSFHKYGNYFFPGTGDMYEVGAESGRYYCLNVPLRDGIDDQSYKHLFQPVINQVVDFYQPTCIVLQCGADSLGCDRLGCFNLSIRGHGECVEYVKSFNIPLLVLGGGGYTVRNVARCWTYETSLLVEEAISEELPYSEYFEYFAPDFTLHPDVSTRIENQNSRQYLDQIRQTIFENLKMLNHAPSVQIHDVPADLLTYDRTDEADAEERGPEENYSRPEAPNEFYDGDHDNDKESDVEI

Histone deacetylase 1 = Histone deacetylase 1 (Homo sapiens, UniProt Q13547); experiment: Inhibition of human recombinant HDAC1
Sequence of Histone deacetylase 1 (Q13547 whole entry): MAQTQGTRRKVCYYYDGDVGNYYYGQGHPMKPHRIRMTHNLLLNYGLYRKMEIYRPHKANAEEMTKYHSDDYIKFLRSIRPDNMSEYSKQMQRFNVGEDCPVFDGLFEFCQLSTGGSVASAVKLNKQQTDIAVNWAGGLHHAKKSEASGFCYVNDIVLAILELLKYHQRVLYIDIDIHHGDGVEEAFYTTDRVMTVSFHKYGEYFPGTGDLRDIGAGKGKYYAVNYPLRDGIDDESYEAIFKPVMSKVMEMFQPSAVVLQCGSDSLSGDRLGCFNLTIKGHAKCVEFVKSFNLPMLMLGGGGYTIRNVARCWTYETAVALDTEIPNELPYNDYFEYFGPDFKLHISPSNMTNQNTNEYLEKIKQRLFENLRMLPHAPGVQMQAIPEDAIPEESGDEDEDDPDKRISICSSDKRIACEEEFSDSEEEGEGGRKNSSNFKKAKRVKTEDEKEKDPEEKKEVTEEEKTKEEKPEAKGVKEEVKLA

NCI-H460 = experiment: Antitumor activity against human H460 cells xenografted in mouse at 20 mg/kg, po administered once daily for 12 days relative to control; assay type: functional
[7] = Solubility at pH 6.8; assay type: physicochemical; settings: buffer
[8] = Metabolic stability in rat microsomes assessed as biotransformation rate; assay type: ADME, Microsome
[9] = Antitumor activity against human AZ-521 cells xenografted in mouse at 10 mg/kg, po administered once daily for 12 days relative to control; assay type: functional
[10] = Antitumor activity against human TSU-Pr1 cells xenografted in mouse at 10 mg/kg, po administered once daily for 12 days relative to control; assay type: functional
Mus musculus [11] = experiment: Toxicity in mouse xenografted with human H460 cells at 5 to 20 mg/kg, po administered once daily for 12 days; assay type: organism-based; design: dose 5-20 mg/kg, route oral; settings: in vivo, 288 h
HMEC [12] = experiment: Antiproliferative activity against HMEC by MTT assay; assay type: cell-based; settings: Homo sapiens
Histone deacetylase 7 = target: T1, Histone deacetylase 7 (Homo sapiens, UniProt Q8WUI4); experiment: Inhibition of HDAC7
T1 sequence (Q8WUI4 whole entry): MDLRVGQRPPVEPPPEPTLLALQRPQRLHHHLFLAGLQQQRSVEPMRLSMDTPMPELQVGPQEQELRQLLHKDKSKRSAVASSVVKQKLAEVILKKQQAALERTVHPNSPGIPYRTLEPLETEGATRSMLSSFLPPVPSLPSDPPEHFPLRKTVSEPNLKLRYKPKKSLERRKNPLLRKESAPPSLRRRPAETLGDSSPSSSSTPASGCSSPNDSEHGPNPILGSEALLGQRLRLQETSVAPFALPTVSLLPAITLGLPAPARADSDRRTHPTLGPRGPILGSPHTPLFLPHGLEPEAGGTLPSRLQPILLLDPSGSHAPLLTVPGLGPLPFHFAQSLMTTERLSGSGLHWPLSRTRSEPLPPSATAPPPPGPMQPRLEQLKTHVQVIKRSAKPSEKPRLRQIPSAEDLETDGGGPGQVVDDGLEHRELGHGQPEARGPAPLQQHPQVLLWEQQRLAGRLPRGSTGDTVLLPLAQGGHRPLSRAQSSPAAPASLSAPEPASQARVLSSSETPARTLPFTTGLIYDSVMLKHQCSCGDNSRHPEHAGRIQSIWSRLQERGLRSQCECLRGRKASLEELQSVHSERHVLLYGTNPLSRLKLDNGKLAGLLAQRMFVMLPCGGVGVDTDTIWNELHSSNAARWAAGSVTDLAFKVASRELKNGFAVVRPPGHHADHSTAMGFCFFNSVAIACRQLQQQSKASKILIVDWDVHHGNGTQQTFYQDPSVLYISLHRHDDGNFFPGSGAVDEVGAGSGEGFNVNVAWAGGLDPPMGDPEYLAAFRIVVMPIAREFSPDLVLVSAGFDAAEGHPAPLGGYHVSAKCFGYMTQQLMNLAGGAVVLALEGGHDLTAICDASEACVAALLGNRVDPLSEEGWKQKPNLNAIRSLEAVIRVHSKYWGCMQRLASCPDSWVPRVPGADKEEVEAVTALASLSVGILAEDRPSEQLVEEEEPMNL

HCT-15 [13] = experiment: Antitumor activity against human HCT15 cells xenografted in mouse at 5 mg/kg, po administered once daily for 12 days relative to control; assay type: functional
HCT-116 [14] = experiment: Induction of p21WAF1/CIP1 expression in human HCT116 cells assessed as […] after 16 hrs by luciferase assay; assay type: functional, cell-based
[15] = Terminal half life in Sprague-Dawley rat at 2.5 mg/kg, iv up to 6 hrs; assay type: ADME, organism-based; design: dose 2.5 mg/kg, route intravenous; settings: in vivo, read-out: beta t1/2 (converted)
[16] = Antitumor activity against human TSU-Pr1 cells xenografted in mouse at 20 mg/kg, po administered once daily for 12 days relative to control; assay type: functional
[17] = Volume of distribution at steady state in Sprague-Dawley rat at 2.5 mg/kg, iv up to 6 hrs; assay type: ADME, organism-based; design: dose 2.5 mg/kg, route intravenous; settings: in vivo, read-out: Vdss
HMEC [18] = experiment: Selectivity ratio of IC50 for HMEC to IC50 for human HCT116 cells
Mus musculus [19] = experiment: Toxicity in mouse xenografted with human AZ-521 cells at 5 to 20 mg/kg, po administered once daily for 12 days; assay type: organism-based; design: dose 5-20 mg/kg, route oral; settings: in vivo, 288 h
T-24 = experiment: Induction of histone H4 hyperacetylation in human T24 cells after 16 hrs by immunoblotting; assay type: functional, cell-based; settings: T-24, 16 h
Histone deacetylase 5 = Histone deacetylase 5 (Homo sapiens, UniProt Q9UQL6); experiment: Inhibition of HDAC5
Sequence of Histone deacetylase 5 (Q9UQL6 whole entry): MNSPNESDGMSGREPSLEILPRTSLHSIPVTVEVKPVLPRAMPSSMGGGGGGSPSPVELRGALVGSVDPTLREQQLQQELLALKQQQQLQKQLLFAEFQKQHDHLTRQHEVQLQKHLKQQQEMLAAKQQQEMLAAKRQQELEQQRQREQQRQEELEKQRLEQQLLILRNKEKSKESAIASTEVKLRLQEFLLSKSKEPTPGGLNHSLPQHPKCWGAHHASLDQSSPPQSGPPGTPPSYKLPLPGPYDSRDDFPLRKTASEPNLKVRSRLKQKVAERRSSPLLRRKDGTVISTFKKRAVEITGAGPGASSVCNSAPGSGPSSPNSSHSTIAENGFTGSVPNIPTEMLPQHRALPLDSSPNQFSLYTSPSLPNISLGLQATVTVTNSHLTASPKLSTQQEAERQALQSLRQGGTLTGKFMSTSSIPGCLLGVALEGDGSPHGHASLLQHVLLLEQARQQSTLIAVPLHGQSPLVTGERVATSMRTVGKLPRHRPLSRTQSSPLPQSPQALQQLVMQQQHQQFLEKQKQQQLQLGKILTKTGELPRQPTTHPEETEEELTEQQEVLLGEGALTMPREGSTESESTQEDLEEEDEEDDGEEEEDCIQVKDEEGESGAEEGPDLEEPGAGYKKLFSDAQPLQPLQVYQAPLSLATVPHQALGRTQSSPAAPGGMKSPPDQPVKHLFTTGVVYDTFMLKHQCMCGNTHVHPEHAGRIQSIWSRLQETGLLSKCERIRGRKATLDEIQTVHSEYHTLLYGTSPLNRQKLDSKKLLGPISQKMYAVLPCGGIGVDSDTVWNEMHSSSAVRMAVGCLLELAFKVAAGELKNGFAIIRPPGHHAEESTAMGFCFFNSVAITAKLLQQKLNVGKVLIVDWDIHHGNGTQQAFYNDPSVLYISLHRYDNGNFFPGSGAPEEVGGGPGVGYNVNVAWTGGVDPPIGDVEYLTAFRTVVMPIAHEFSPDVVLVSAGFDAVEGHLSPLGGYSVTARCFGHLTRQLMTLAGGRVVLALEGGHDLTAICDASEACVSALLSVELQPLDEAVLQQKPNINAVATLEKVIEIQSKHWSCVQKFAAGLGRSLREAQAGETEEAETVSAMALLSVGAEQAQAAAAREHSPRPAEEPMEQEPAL

[20] = Clearance in Sprague-Dawley rat at 2.5 mg/kg, iv up to 6 hrs; assay type: ADME, organism-based; design: dose 2.5 mg/kg, route intravenous; settings: in vivo
HCT-15 [21] = experiment: Antitumor activity against human HCT15 cells xenografted in mouse at 10 mg/kg, po administered once daily for 12 days relative to control; assay type: functional
Histone deacetylase 8 = target: T2, Histone deacetylase 8 (Homo sapiens, UniProt Q9BY41); experiment: Inhibition of HDAC8
T2 sequence (Q9BY41 whole entry): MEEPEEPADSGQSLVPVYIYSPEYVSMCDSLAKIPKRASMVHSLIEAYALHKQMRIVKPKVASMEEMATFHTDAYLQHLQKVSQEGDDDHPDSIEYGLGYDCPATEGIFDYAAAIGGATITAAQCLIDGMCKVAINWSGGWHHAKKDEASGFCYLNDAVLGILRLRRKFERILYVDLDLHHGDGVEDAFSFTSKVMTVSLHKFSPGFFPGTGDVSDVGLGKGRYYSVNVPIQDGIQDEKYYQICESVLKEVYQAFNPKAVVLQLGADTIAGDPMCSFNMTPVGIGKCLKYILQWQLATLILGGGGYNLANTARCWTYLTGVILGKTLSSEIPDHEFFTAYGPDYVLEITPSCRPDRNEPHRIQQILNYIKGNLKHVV

[22] = Metabolic stability in human microsomes assessed as biotransformation rate; assay type: ADME, Microsome

Sequence of Histone deacetylase 2 (Q92769 whole entry): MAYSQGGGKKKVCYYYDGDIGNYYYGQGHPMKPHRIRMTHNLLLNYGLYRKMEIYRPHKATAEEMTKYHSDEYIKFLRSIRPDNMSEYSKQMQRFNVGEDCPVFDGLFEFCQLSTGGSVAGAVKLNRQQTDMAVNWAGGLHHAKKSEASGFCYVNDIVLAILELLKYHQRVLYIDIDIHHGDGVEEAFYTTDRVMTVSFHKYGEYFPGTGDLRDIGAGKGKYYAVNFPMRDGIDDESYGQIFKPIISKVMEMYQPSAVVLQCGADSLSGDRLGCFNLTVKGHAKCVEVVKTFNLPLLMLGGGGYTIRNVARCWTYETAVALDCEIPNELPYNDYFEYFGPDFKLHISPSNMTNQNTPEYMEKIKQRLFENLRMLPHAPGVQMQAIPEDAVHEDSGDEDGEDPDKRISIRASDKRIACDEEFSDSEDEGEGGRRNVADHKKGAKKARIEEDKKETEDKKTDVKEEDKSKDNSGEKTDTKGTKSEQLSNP

Question: With `Nc1ccccc1NC(=O)c1ccc(CNc2nccc(-c3ccn[nH]3)n2)cc1` as the compound, how does the T/C [1] read?
Answer: 43%

Question: And the IC50 (Histone deacetylase 2)?
Answer: 140 nM

Question: And the solubility [2]?
Answer: > 1000 µg/mL

Question: What about the Activity [3] of the same compound?
Answer: 0.054 nmol/mg/min

Question: And the IC50 (HCT-116 [4])?
Answer: 300 nM

Question: What about the Activity (Mus musculus [5]) of the same compound?
Answer: Non-toxic

Question: What about the Activity (Mus musculus [6]) of the same compound?
Answer: Non-toxic

Question: What about the IC50 (Histone deacetylase 3) of the same compound?
Answer: 320 nM

Question: What about the IC50 (Histone deacetylase 1) of the same compound?
Answer: 140 nM

Question: And the T/C (NCI-H460)?
Answer: 34%

Question: What about the solubility [7] of the same compound?
Answer: 77 µg/mL (≈ 200 µM)

Question: What about the Activity [8] of the same compound?
Answer: 0.043 nmol/mg/min

Question: And the T/C [9]?
Answer: 53%

Question: What about the T/C [10] of the same compound?
Answer: 61%

Question: And the Activity (Mus musculus [11])?
Answer: Non-toxic

Question: And the IC50 (HMEC [12])?
Answer: 24000 nM

Question: What about the IC50 (Histone deacetylase 7) of the same compound?
Answer: > 20000 nM

Question: And the T/C (HCT-15 [13])?
Answer: 79%

Question: What about the Activity (HCT-116 [14]) of the same compound?
Answer: inactive

Question: What about the half-life [15] of the same compound?
Answer: 1.2 h

Question: And the T/C [16]?
Answer: 48%

Question: And the Vd [17]?
Answer: 0.13 L/kg

Question: And the “Ratio IC50” value (HMEC [18])?
Answer: >30

Question: What about the Activity (Mus musculus [19]) of the same compound?
Answer: Non-toxic

Question: What about the EC50 (T-24) of the same compound?
Answer: 1000 nM

Question: What about the IC50 (Histone deacetylase 5) of the same compound?
Answer: > 10000 nM

Question: What about the clearance [20] of the same compound?
Answer: 9.17 mL/min/kg

Question: And the T/C (HCT-15 [21])?
Answer: 63%

Question: What about the IC50 (Histone deacetylase 8) of the same compound?
Answer: > 10000 nM

Question: And the Activity [22]?
Answer: 0.01 nmol/mg/min
